Marks after values point to notes of the source that are not given here.

In data set [1] the test system is Allium cepa root meristem cells. The data set can be described thus: Comet assay. The class given is in vivo. The note with it: 0.0714 mg/L, 72 h germination.
For data set [2] the test system is unchanged. Description: Chromosomal abnormality, MN and mitotic index test. The class given is in vivo. To be noted: 0.0714 mg/L, 72 h germination.

On to `[N-]=[N+]=[N-].[Na+]` [NaN3, sodium azide], for which, in data set [1], the “Head DNA (%)” value is on record as 25.0 ± 1.35^e %, the Head density was 75.475, the “Head diameter (px)” value is recorded as 8.000 px and the “Tail DNA (%)” value was 75.0 ± 1.35^a %. Moreover, in data set [1], the Tail density was found to be 196.278, the “Tail length (px)” value was found to be 72.000 px and the Tail moment came to 53.981. For the same compound, in data set [1] (listed as NaN₃), the “Tail DNA (%)” value is listed as 75.0 ± 1.35%. Besides, in data set [2] (1.000 cells per group), the Binuclear cell is 71.9 ± 3.95^a, the Bridge was 48.3 ± 4.20^a, the Disorientation is given as 56.4 ± 4.16^a and the Fragment is recorded as 34.9 ± 3.59^a. Further, in data set [2] (1.000 cells per group), the Micronucleus was 75.7 ± 8.27^a, the Nucleus bud is reported as 41.0 ± 3.81^a, the Sticky chromosome is 72.7 ± 4.74^a and the “Unequal distribution of chromatin” value was 51.5 ± 3.72^a. Besides, the Vagrant chromosome in data set [2] (1.000 cells per group) was 67.7 ± 3.82^a. The Micronucleus in data set [2] (1.000 cells per group, listed as NaN₃) stood at 75.7 ± 8.27. Moreover, in data set [2] (10.000 cells per group), the “Mitotic index (%)” value amounted to 6.75% and the “Mitotic index: number of dividing cells” value came out at 675 ± 11.2.

The values above are taken from PMC12475174 (Scientific Reports, 2025).
